Laboratory results: ChEMBL document CHEMBL1141515, “2-(1H-Imidazol-4-yl)ethanamine and 2-(1H-pyrazol-1-yl)ethanamine side chain variants of the IGF-1R inhibitor BMS-536924” (Bioorg Med Chem Lett, 2008)
pIC50: −log10 of the molar value.

Legend:
[1] = system: Mus musculus; experiment: AUC (0 to 4h) in mouse at 20 mg/kg, po; format: ADME, organism-based, Plasma; set-up: time < 4 hr, dose 20 mg/kg, route oral; details: in vivo
[2] = target: T1, Insulin-like growth factor 1 receptor (Homo sapiens, UniProt P08069); experiment: Inhibition of IGF1R
T1 sequence (P08069 31-736 limits assumed): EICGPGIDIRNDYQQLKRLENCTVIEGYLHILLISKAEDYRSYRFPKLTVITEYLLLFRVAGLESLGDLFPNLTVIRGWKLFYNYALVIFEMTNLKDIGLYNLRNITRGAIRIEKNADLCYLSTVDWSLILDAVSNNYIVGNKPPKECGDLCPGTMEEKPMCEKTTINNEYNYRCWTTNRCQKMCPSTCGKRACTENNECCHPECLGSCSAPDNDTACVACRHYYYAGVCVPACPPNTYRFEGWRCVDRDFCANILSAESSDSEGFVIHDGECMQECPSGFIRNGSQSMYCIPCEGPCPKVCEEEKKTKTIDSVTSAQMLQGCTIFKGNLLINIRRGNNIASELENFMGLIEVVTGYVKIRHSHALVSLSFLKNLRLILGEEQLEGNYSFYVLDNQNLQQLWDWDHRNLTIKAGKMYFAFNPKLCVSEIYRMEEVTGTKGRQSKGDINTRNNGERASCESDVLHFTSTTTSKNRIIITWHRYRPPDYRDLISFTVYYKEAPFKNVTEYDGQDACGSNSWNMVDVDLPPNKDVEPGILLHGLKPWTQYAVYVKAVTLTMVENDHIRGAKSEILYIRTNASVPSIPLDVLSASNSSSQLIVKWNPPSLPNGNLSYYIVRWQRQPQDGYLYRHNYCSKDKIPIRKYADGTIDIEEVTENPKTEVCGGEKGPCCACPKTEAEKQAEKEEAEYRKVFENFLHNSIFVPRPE
T1 sequence (P08069 741-1367 limits assumed): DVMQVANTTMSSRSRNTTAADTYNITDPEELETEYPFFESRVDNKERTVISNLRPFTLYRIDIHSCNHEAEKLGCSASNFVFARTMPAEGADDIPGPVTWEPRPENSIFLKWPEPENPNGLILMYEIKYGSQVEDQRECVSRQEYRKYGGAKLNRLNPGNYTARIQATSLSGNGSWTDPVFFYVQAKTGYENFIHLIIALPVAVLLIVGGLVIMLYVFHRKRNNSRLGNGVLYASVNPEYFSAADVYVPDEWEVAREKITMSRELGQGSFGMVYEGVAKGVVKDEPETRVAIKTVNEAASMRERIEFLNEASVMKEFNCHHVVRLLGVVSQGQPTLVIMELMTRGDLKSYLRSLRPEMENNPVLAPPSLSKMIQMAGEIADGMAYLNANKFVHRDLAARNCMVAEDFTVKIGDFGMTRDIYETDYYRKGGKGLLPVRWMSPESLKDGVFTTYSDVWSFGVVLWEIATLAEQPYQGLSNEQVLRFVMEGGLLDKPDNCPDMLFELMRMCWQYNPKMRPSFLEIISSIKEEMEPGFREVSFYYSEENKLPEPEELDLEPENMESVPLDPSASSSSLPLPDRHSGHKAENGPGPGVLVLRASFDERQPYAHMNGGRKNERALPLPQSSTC

[3] = target: T1, Insulin-like growth factor 1 receptor; experiment: Inhibition of IGF1R expressed in SAL cells; format: cell-based
[4] = Protein binding in mouse serum; format: ADME, cell-free; details: read-out: PB
[5] = system: Serum; experiment: Protein binding in human serum; format: ADME, cell-free

Compound | AUC [1] [µM·h] | also measured
CCn1cnc(CCNc2cc[nH]c(=O)c2-c2nc3c(C)cc(N4CCOCC4)cc3[nH]2)c1Cl | 50.9 | 
Cc1cc(N2CCOCC2)cc2[nH]c(-c3c(NCCn4nccc4C)cc[nH]c3=O)nc12 | 5.2 | pIC50 [2]: 6.57; pIC50 [3]: 6.27
Cc1cc(N2CCOCC2)cc2[nH]c(-c3c(NCCc4nc(C)n(C)c4Cl)cc[nH]c3=O)nc12 | 36 | 
Cc1cc(N2CCOCC2)cc2[nH]c(-c3c(NCCc4nc(Cl)n(C)c4Cl)cc[nH]c3=O)nc12 | 32.2 | 
Cc1cc(N2CCOCC2)cc2[nH]c(-c3c(NCCn4ncc(Br)c4C)cc[nH]c3=O)nc12 | 33 | 
CCOC(=O)c1cnn(CCNc2cc[nH]c(=O)c2-c2nc3c(C)cc(N4CCOCC4)cc3[nH]2)c1 | 4.9 | 
Cc1ccn(CCNc2cc[nH]c(=O)c2-c2nc3c(C)cc(N4CCOCC4)cc3[nH]2)n1 | 1.2 | pIC50 [2]: 6.54; pIC50 [3]: 6.37
Cc1cc(N2CCOCC2)cc2[nH]c(-c3c(NCCn4cccn4)cc[nH]c3=O)nc12 | 1.6 | 
COC(=O)c1cnn(CCNc2cc[nH]c(=O)c2-c2nc3c(C)cc(N4CCOCC4)cc3[nH]2)c1 | 14.1 | 
Cc1cc(N2CCOCC2)cc2[nH]c(-c3c(NCCc4cn(C)cn4)cc[nH]c3=O)nc12 | 3.8 | 
Cc1cc(N2CCOCC2)cc2[nH]c(-c3c(NC[C@@H](O)c4cccc(Cl)c4)cc[nH]c3=O)nc12 | 50.9 | fraction unbound [4]: < 0.001; PB [5]: 99.6%
Cc1nn(CCNc2cc[nH]c(=O)c2-c2nc3c(C)cc(N4CCOCC4)cc3[nH]2)cc1Br | 132 | 
Cc1cc(N2CCOCC2)cc2[nH]c(-c3c(NCCn4cc(Br)c(CO)n4)cc[nH]c3=O)nc12 | 2 | 
Cc1cc(N2CCOCC2)cc2[nH]c(-c3c(NCCc4ncn(C)c4Cl)cc[nH]c3=O)nc12 | 8.2 | 
Cc1cnn(CCNc2cc[nH]c(=O)c2-c2nc3c(C)cc(N4CCOCC4)cc3[nH]2)c1 | 2.7 | 
Cc1nn(CCNc2cc[nH]c(=O)c2-c2nc3c(C)cc(N4CCOCC4)cc3[nH]2)cc1Cl | 57.8 | 
CCn1cnc(CCNc2cc[nH]c(=O)c2-c2nc3c(C)cc(N4CCOCC4)cc3[nH]2)c1Br |  | pIC50 [2]: 6.76; pIC50 [3]: 6.55
Cc1cc(N2CCOCC2)cc2[nH]c(-c3c(NCCn4cc(Cl)cn4)cc[nH]c3=O)nc12 | 90.3 | 
